Source: BindingDB's records for doi:10.1016/j.bmcl.2020.126965 (Australian National University, 2020)

Biological target: Nonstructural protein 3 (Zika virus, UniProt A0A024AXB9)
Test: Binding affinity to Zika virus NS2B-NS3 protease

Nonstructural protein 3, sequence (A0A024AXB9 whole entry): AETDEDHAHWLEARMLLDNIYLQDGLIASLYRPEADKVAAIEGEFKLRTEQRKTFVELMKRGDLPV

`CC1=CCC(C(=O)/N=C2\CC=C(S(=O)(=O)O)c3cc(S(=O)(=O)O)cc(S(=O)(=O)O)c32)=C/C1=N/C(=O)C1=CC=C/C(=N\C(=O)/N=C2\C=CC=C(C(=O)/N=C3/CC(C(=O)/N=C4\CC=C(S(=O)(=O)O)c5cc(S(=O)(=O)O)cc(S(=O)(=O)O)c54)=CC=C3C)C2)C1` gave an EC50 of 1930 nM.
